Laboratory results: ChEMBL document CHEMBL1201861, “Genomics of Drug Sensitity in Cancer screening data, Wellcome Trust Sanger Institute”

What was measured:
HCC1954 = assay: cells; format: functional, cell-based; conditions: Homo sapiens;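 also: growth inhibition of human HCC1954 cells, read out with a cell viability assay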
Description: SANGER: Inhibition of human HCC1954 cell growth in a cell viability assay.

FaDu = assay: cells; format: functional, cell-based; conditions: Homo sapiens;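 also: cell viability readout of growth inhibition in FaDu cells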
Description: SANGER: Inhibition of human FADU cell growth in a cell viability assay.

MDA-MB-453 = assay: cells; format: functional, cell-based; conditions: Homo sapiens
Description: SANGER: Inhibition of human MDA-MB-453 cell growth in a cell viability assay.

NCI-H520 = assay: cells; format: functional, cell-based; conditions: Homo sapiens;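 also: growth inhibition of NCI-H520 cells, measured by a cell viability assay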
Description: SANGER: Inhibition of human NCI-H520 cell growth in a cell viability assay.

EGI-1 = assay: cells; format: functional, cell-based; conditions: Homo sapiens;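 also: cell viability readout used to gauge growth inhibition of EGI-1 cells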
Description: SANGER: Inhibition of human EGI-1 cell growth in a cell viability assay.

CAL-120 = assay: cells; format: functional, cell-based; conditions: Homo sapiens;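 also: cell growth inhibition, read out as cell viability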
Description: SANGER: Inhibition of human CAL-120 cell growth in a cell viability assay.

RPMI-6666 = assay: cells; format: functional, cell-based; conditions: Homo sapiens
Description: SANGER: Inhibition of human RPMI-6666 cell growth in a cell viability assay.

HMV-2 cell line = assay: cells; format: functional, cell-based; conditions: Homo sapiens;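 also: growth inhibition of HMV-II cells, read out with a cell viability assay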
Description: SANGER: Inhibition of human HMV-II cell growth in a cell viability assay.

8305C = assay: cells; format: functional, cell-based; conditions: Homo sapiens
Description: SANGER: Inhibition of human 8305C cell growth in a cell viability assay.

SW1783 = assay: cells; format: functional, cell-based; conditions: Homo sapiens
Description: SANGER: Inhibition of human SW1783 cell growth in a cell viability assay.

RCM-1 = assay: cells; format: functional, cell-based; conditions: Homo sapiens;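 also: growth inhibition of the RCM-1 line, determined with a cell viability readout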
Description: SANGER: Inhibition of human RCM-1 cell growth in a cell viability assay.

MFE-280 = assay: cells; format: functional, cell-based; conditions: Homo sapiens;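 also: growth inhibition of MFE-280 cells, determined with a cell viability readout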
Description: SANGER: Inhibition of human MFE-280 cell growth in a cell viability assay.

MDA-MB-415 = assay: cells; format: functional, cell-based; conditions: Homo sapiens
BL-70 = assay: SANGER: Inhibition of human BL-70 cell growth in a cell viability assay.; format: functional, cell-based
HCC70 = assay: cells; format: functional, cell-based; conditions: Homo sapiens;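 also: cell viability assay measuring how strongly the compound suppresses proliferation of HCC70 cells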
Description: SANGER: Inhibition of human HCC70 cell growth in a cell viability assay.

NCI-H596 = assay: cells; format: functional, cell-based; conditions: Homo sapiens;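 also: growth inhibition of NCI-H596 cells, read out with a cell viability assay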
Description: SANGER: Inhibition of human NCI-H596 cell growth in a cell viability assay.

REH = assay: cells; format: functional, cell-based; conditions: Homo sapiens;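 also: growth inhibition of REH cells determined with a cell viability read-out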
Description: SANGER: Inhibition of human REH cell growth in a cell viability assay.

MC-CAR = assay: cells; format: functional, cell-based; conditions: Homo sapiens;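 also: growth inhibition of the human MC-CAR cell line, read out by a cell viability assay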
Description: SANGER: Inhibition of human MC-CAR cell growth in a cell viability assay.

P12-Ichikawa = assay: cells; format: functional, cell-based; conditions: Homo sapiens
LK-2 = assay: cells; format: functional, cell-based; conditions: Homo sapiens;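 also: growth inhibition of LK-2 cells, read out with a viability assay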
Description: SANGER: Inhibition of human LK-2 cell growth in a cell viability assay.

NCI-H2122 = assay: cells; format: functional, cell-based; conditions: Homo sapiens;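 also: growth inhibition of the cells, read out with a cell viability assay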
Description: SANGER: Inhibition of human NCI-H2122 cell growth in a cell viability assay.

SCC-25 = assay: cells; format: functional, cell-based; conditions: Homo sapiens;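 also: growth inhibition of SCC-25 cells, measured with a cell viability assay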
Description: SANGER: Inhibition of human SCC-25 cell growth in a cell viability assay.

HuCCT-1 = assay: cells; format: functional, cell-based, HuCCT1; conditions: Homo sapiens;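 also: growth inhibition of HuCCT-1 cells, read out by a cell viability assay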
Description: SANGER: Inhibition of human HuCCT1 cell growth in a cell viability assay.

SAS = assay: cells; format: functional, cell-based; conditions: Homo sapiens;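 also: growth inhibition of SAS cells, read out with a cell viability assay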
Description: SANGER: Inhibition of human SAS cell growth in a cell viability assay.

HLE = assay: cells; format: functional, cell-based; conditions: Homo sapiens;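 also: growth inhibition of human HLE cells, read out by a cell viability assay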
Description: SANGER: Inhibition of human HLE cell growth in a cell viability assay.

SW948 = assay: cells; format: functional, cell-based; conditions: Homo sapiens;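 also: growth inhibition of SW948 cells, read out with a cell viability assay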
Description: SANGER: Inhibition of human SW948 cell growth in a cell viability assay.

T84 = assay: cells; format: functional, cell-based; conditions: Homo sapiens;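 also: growth inhibition measured with a cell viability readout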
Description: SANGER: Inhibition of human T84 cell growth in a cell viability assay.

TE-15 = assay: cells; format: functional, cell-based; conditions: Homo sapiens;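 also: cell viability readout of growth inhibition in TE-15 cells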
Description: SANGER: Inhibition of human TE-15 cell growth in a cell viability assay.

SCLC-21H = assay: cells; format: functional, cell-based; conditions: Homo sapiens;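 also: growth inhibition of cultured human SCLC-21H cells, read out with a cell viability assay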
Description: SANGER: Inhibition of human SCLC-21H cell growth in a cell viability assay.

BOKU = assay: cells; format: functional, cell-based; conditions: Homo sapiens;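 also: growth inhibition of the human BOKU cell line, read out by a cell viability assay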
Description: SANGER: Inhibition of human BOKU cell growth in a cell viability assay.

LU-99A = assay: cells; format: functional, cell-based; conditions: Homo sapiens;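 also: growth inhibition of LU-99A cells, read out with a cell viability assay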
Description: SANGER: Inhibition of human LU-99A cell growth in a cell viability assay.

VM-CUB-1 = assay: cells; format: functional, cell-based; conditions: Homo sapiens;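 also: cell viability assay measuring growth inhibition of the human VM-CUB-1 cell line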
Description: SANGER: Inhibition of human VM-CUB-1 cell growth in a cell viability assay.

OPM-2 = assay: cells; format: functional, cell-based; conditions: Homo sapiens;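 also: growth of OPM-2 cells measured with a viability assay, IC50 for suppression of proliferation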
Description: SANGER: Inhibition of human OPM-2 cell growth in a cell viability assay.

NCI-H358 = assay: cells; format: functional, cell-based; conditions: Homo sapiens;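 also: growth inhibition of NCI-H358 human cells, read out with a cell viability assay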
Description: SANGER: Inhibition of human NCI-H358 cell growth in a cell viability assay.

OAW-28 = assay: cells; format: functional, cell-based; conditions: Homo sapiens;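 also: growth inhibition of OAW-28 cells, read out with a cell viability assay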
Description: SANGER: Inhibition of human OAW-28 cell growth in a cell viability assay.

HGC-27 = assay: cells; format: functional, cell-based; conditions: Homo sapiens;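 also: growth inhibition of human HGC-27 cells, read out in a cell viability assay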
Description: SANGER: Inhibition of human HGC-27 cell growth in a cell viability assay.

DBTRG-05MG = assay: cells; format: functional, cell-based; conditions: Homo sapiens;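 also: cell viability assay measuring growth inhibition of human DBTRG-05MG cells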
Description: SANGER: Inhibition of human DBTRG-05MG cell growth in a cell viability assay.

Capan-2 = assay: cells; format: functional, cell-based; conditions: Homo sapiens;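 also: Capan-2 cell growth inhibition, read out with a viability assay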
Description: SANGER: Inhibition of human Capan-2 cell growth in a cell viability assay.

NCI-H1793 = assay: cells; format: functional, cell-based; conditions: Homo sapiens;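 also: cell growth inhibition, read out by a cell viability assay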
Description: SANGER: Inhibition of human NCI-H1793 cell growth in a cell viability assay.

SU-DHL-1 = assay: SANGER: Inhibition of human SU-DHL-1 cell growth in a cell viability assay.; format: functional, cell-based
SW1573 = assay: cells; format: functional, cell-based; conditions: Homo sapiens;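 also: growth inhibition of SW1573 cells, read out with a cell viability assay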
Description: SANGER: Inhibition of human SW1573 cell growth in a cell viability assay.

CAL-72 = assay: cells; format: functional, cell-based; conditions: Homo sapiens;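 also: cell viability assay measuring inhibition of proliferation in the CAL-72 cell line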
Description: SANGER: Inhibition of human CAL-72 cell growth in a cell viability assay.

RVH-421 = assay: cells; format: functional, cell-based; conditions: Homo sapiens
Description: SANGER: Inhibition of human RVH-421 cell growth in a cell viability assay.

DG-75 = assay: cells; format: functional, cell-based; conditions: Homo sapiens;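 also: growth inhibition of DG-75 cells, read out with a cell viability assay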
Description: SANGER: Inhibition of human DG-75 cell growth in a cell viability assay.

NCI-H2405 = assay: cells; format: functional, cell-based; conditions: Homo sapiens;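 also: growth inhibition of the human cell line, read out with a cell viability assay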
Description: SANGER: Inhibition of human NCI-H2405 cell growth in a cell viability assay.

NCI-H187 = assay: cells; format: functional, cell-based; conditions: Homo sapiens;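 also: growth inhibition of NCI-H187 cells, read out as cell viability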
Description: SANGER: Inhibition of human NCI-H187 cell growth in a cell viability assay.

HSC-4 = assay: cells; format: functional, cell-based; conditions: Homo sapiens;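 also: growth inhibition of human HSC-4 cells, read out with a cell viability assay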
Description: SANGER: Inhibition of human HSC-4 cell growth in a cell viability assay.

COLO-680N = assay: cells; format: functional, cell-based; conditions: Homo sapiens;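 also: cell viability assay used to measure inhibition of COLO-680N cell growth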
Description: SANGER: Inhibition of human COLO-680N cell growth in a cell viability assay.

FTC-133 = assay: cells; format: functional, cell-based; conditions: Homo sapiens
ASPC1 = assay: cells; format: functional, cell-based; conditions: Homo sapiens;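 also: growth inhibition of AsPC-1 cells, read out with a cell viability assay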
Description: SANGER: Inhibition of human AsPC-1 cell growth in a cell viability assay.

HCC1806 = assay: cells; format: functional, cell-based; conditions: Homo sapiens;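 also: growth inhibition of the cancer cell line, determined with a cell viability assay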
Description: SANGER: Inhibition of human HCC1806 cell growth in a cell viability assay.

ESS-1 = assay: cells; format: functional, cell-based; conditions: Homo sapiens;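 also: growth inhibition of human ESS-1 cells, read out by a cell viability assay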
Description: SANGER: Inhibition of human ESS-1 cell growth in a cell viability assay.

KYSE-520 cell line = assay: cells; format: functional, cell-based; conditions: Homo sapiens;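 also: growth inhibition of human KYSE-520 cells, read out with a viability assay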
Description: SANGER: Inhibition of human KYSE-520 cell growth in a cell viability assay.

MONO-MAC-6 = assay: cells; format: functional, cell-based; conditions: Homo sapiens;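 also: cell viability assay measuring growth inhibition of human MONO-MAC-6 cells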
Description: SANGER: Inhibition of human MONO-MAC-6 cell growth in a cell viability assay.

NCI-H1693 = assay: cells; format: functional, cell-based; conditions: Homo sapiens;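 also: growth inhibition of the human cell line, read out with a cell viability assay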
Description: SANGER: Inhibition of human NCI-H1693 cell growth in a cell viability assay.

786-0 = assay: cells; format: functional, cell-based; conditions: Homo sapiens
Description: SANGER: Inhibition of human 786-0 cell growth in a cell viability assay.

COLO-678 = assay: cells; format: functional, cell-based; conditions: Homo sapiens
Description: SANGER: Inhibition of human COLO-678 cell growth in a cell viability assay.

CAMA-1 = assay: cells; format: functional, cell-based; conditions: Homo sapiens;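 also: growth inhibition of CAMA-1 cells, read out with a cell viability assay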
Description: SANGER: Inhibition of human CAMA-1 cell growth in a cell viability assay.

RPMI-7951 = assay: cells; format: functional, cell-based; conditions: Homo sapiens
Description: SANGER: Inhibition of human RPMI-7951 cell growth in a cell viability assay.

PF-382 = assay: cells; format: functional, cell-based; conditions: Homo sapiens
Description: SANGER: Inhibition of human PF-382 cell growth in a cell viability assay.

HT1197 = assay: cells; format: functional, cell-based, HT-1197; conditions: Homo sapiens
Description: SANGER: Inhibition of human HT-1197 cell growth in a cell viability assay.

TGW = assay: cells; format: functional, cell-based; conditions: Homo sapiens;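 also: growth inhibition of human TGW cells, read out with a cell viability assay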
Description: SANGER: Inhibition of human TGW cell growth in a cell viability assay.

YT = assay: cells; format: functional, cell-based; conditions: Homo sapiens
Description: SANGER: Inhibition of human YT cell growth in a cell viability assay.

D-392MG = assay: cells; format: functional, cell-based; conditions: Homo sapiens

Measured: IC50

N#C/C(=C1/Nc2ccccc2S1)c1ccnc(NCCc2cccnc2)n1
3080 nM: 786-0
1530 nM: HCC1806
1900 nM: NCI-H358
672 nM: NCI-H2122
3470 nM: HLE
7650 nM: HuCCT-1
6170 nM: SW1783
3860 nM: T84
6270 nM: HGC-27
4850 nM: BL-70
6670 nM: Capan-2
5310 nM: SCC-25
5970 nM: NCI-H2405
6530 nM: LK-2
6490 nM: ESS-1
2220 nM: TE-15
793 nM: HMV-2 cell line
> 8000 nM: all other assays above

C/C(O)=C(\C#N)C(=O)Nc1cc(Br)ccc1Br
> 16000 nM: all assays above

O=c1[nH]c2ccccc2n1C1CCN(Cc2ccc(-c3nc4cc5[nH]cnc5cc4nc3-c3ccccc3)cc2)CC1
751 nM: HCC70
150 nM: HGC-27
1130 nM: NCI-H520
1730 nM: MDA-MB-415
1100 nM: 786-0
> 2560 nM: all other assays above

Fc1cc(-c2cc[nH]/c(=N/c3ccc(-n4cnc(N5CCOCC5)n4)cc3)n2)cc(N2CCOCC2)c1
1940 nM: SAS
284 nM: HGC-27
380 nM: MC-CAR
715 nM: FaDu
637 nM: HCC1806
3480 nM: VM-CUB-1
346 nM: SU-DHL-1
1210 nM: NCI-H1793 | NCI-H2405
415 nM: RVH-421
252 nM: BL-70
722 nM: REH
196 nM: SCC-25
849 nM: LK-2
476 nM: PF-382
659 nM: ESS-1
3470 nM: TGW
721 nM: RPMI-7951
3100 nM: BOKU
428 nM: SW1783
611 nM: HT1197
565 nM: COLO-680N
1450 nM: OAW-28
397 nM: 8305C
448 nM: KYSE-520 cell line
514 nM: OPM-2
740 nM: LU-99A
1330 nM: MDA-MB-415
3650 nM: COLO-678
1520 nM: T84
238 nM: NCI-H2122
4250 nM: HSC-4
624 nM: HLE
377 nM: NCI-H358
375 nM: TE-15
151 nM: HMV-2 cell line
554 nM: HuCCT-1
544 nM: MONO-MAC-6
1420 nM: CAL-120
350 nM: HCC70
1760 nM: RCM-1
814 nM: NCI-H596
835 nM: SW948
1290 nM: DG-75
750 nM: DBTRG-05MG
2790 nM: NCI-H187
3810 nM: P12-Ichikawa
1010 nM: Capan-2
228 nM: 786-0
467 nM: NCI-H520
204 nM: YT
1930 nM: D-392MG
1220 nM: HCC1954
686 nM: EGI-1
296 nM: RPMI-6666
3800 nM: ASPC1
881 nM: SW1573
> 5120 nM: all other assays above
